In ChEMBL document CHEMBL3988442, “University of Dundee, Small-Polar-MMV Screening Library” (2021):
Where “and” joins values, the source holds several entries; their conditions need not be identical. Equal entries are not always repeated.

Tests used:
[1] = target: T1, Coenzyme A biosynthesis bifunctional protein CoaBC (Mycobacterium tuberculosis (strain ATCC 25618 / H37Rv), UniProt P9WNZ1); experiment: Biomol Green assay for MtCoaBC inhibitor, OD650 read; format: functional
T1 sequence (P9WNZ1 whole entry): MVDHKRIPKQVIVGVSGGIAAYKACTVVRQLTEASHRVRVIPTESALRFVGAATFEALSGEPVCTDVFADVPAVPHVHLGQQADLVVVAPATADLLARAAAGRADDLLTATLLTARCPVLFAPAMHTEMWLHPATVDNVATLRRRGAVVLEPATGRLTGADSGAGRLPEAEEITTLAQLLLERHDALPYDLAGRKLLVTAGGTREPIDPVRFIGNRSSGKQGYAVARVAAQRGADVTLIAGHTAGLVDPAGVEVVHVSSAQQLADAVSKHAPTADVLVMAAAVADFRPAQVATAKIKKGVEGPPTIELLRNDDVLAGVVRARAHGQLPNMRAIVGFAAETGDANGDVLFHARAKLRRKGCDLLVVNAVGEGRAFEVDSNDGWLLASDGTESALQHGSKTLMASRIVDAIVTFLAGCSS

[2] = tested on: Leishmania donovani; experiment: Leishmania intramacrophage assay; format: functional, organism-based; details: Leishmania donovani
[3] = In vitro enzyme assay to detect hydrolysis of chlorophenol red-beta-D-[…] directly proportional to the number of Toxoplasma stably expressing beta-galactosidase; format: functional, organism-based, Toxoplasma gondii
[4] = target: Lysine--tRNA ligase (Plasmodium falciparum (isolate 3D7), UniProt Q8IDJ8); experiment: Pf-KRS-1 (Lysyl-RNA Synthetase-1, KRS-1, cytosolic KRS) from Plasmodium falciparum. Inhibitor assay, 384 well plate, luminescence read.; format: functional
Sequence of Lysine--tRNA ligase (Q8IDJ8 whole entry): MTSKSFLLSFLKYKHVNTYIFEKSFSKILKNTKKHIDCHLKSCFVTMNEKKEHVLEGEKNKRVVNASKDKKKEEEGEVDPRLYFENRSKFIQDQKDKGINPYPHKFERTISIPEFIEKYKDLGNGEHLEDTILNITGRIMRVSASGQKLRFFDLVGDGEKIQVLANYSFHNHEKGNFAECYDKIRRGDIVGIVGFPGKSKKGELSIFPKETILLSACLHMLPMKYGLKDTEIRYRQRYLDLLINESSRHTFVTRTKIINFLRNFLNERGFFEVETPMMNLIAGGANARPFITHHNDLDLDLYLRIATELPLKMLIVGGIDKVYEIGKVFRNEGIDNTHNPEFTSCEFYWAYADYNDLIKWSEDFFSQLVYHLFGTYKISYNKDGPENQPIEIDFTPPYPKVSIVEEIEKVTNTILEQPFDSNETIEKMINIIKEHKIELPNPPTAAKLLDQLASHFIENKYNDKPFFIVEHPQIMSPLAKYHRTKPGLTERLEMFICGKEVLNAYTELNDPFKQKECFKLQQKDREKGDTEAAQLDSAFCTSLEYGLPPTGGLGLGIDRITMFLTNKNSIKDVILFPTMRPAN

[5] = target: T2, Histidine--tRNA ligase (Leishmania infantum, UniProt A4I591); experiment: Leishmania infantum Histidine tRNA synthetase (LdHisRS); format: functional
T2 sequence (A4I591 whole entry): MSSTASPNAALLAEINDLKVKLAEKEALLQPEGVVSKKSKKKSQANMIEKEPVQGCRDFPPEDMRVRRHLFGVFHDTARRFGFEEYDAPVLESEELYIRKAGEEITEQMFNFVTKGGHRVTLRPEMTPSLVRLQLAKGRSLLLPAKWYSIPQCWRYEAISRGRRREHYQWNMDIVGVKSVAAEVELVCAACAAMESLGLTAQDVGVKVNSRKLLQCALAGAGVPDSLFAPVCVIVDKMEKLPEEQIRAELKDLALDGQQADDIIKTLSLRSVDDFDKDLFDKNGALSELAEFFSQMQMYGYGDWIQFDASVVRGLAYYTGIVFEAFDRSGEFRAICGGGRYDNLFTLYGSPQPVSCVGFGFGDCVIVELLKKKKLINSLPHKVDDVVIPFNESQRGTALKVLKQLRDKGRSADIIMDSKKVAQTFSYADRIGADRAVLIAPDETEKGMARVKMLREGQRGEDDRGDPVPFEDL

SMILES: CCn1cc(-c2cc(C(F)(F)F)nc(NC3CCCC3)n2)c(C)n1
- IC50 [1]: > 30.2 µM
- IC50 [2]: > 50.1 µM
- pIC50 [3]: 4.783
- IC50 ([3]; Toxoplasma gondii): 17.8 µM

SMILES: CCOc1ccc(CC(CNC(=O)c2ccc(C)o2)C(N)=O)cc1 (stereo not given)
- IC50 [4]: > 50.1 µM

SMILES: COc1cc(CNCCn2ccnc2)cc2c1OCO2
- IC50 [4]: > 50.1 µM

SMILES: CC(C)c1nccn1C1CCCN(C(=O)c2ccc3c(c2)COC3)C1 (stereo not given)
- IC50 [4]: > 50.1 µM

SMILES: CCn1ncc2c1CCCC2NCc1ccc(OC)c(C)c1 (stereo not given)
- IC50 [4]: > 50.1 µM

SMILES: COc1ccccc1N1CCC(N2CCOCC(CO)C2)CC1 (stereo not given)
- IC50 [4]: > 50.1 µM

SMILES: O=C(COCc1ccccc1Cl)N1CCN(c2cnccn2)CC1
- IC50 [4]: > 50.1 µM

SMILES: O=C1COc2cc(C(=O)NCc3ccc(Cl)s3)ccc2N1
- IC50 [4]: 17.5 µM

SMILES: Cc1cnn(CCCN2C(=O)CCc3ccccc32)c1
- IC50 [4]: > 50.1 µM

SMILES: COc1cc(NC(=O)N(C)Cc2ccc(Br)o2)ncn1
- IC50 [4]: > 50.1 µM

SMILES: O=C(O)c1cc(-c2ccncc2F)cc(S(=O)(=O)N2CCCCCC2)c1
- IC50 [4]: > 50.1 µM

SMILES: CCc1ccc(CN2CCN(C(=O)C(C)C)[C@@H]3CS(=O)(=O)C[C@@H]32)cc1
- IC50 [4]: > 50.1 µM

SMILES: O=c1ccc2c(n1Cc1cccnc1)CCC(NCc1cccnc1)C2 (stereo not given)
- IC50 [4]: > 50.1 µM

SMILES: O=C(NCc1cccnc1N1CCc2ccccc2C1)c1cc(=O)[nH][nH]1
- IC50 [1]: > 30.2 µM
- IC50 [5]: 44.8 µM and 45.1 µM

SMILES: CCc1nc(C2CCCN2Cc2noc(Cc3ccccc3)n2)no1 (stereo not given)
- IC50 [4]: > 50.1 µM

SMILES: Cc1ccc(CS(=O)(=O)NCc2ccco2)cc1
- IC50 [4]: > 50.1 µM

SMILES: COc1cc(C2CC(=O)Nc3c2nc2n3CCCC2)cc(OC)c1O (stereo not given)
- IC50 [4]: > 50.1 µM

SMILES: CC(=O)c1cnc(N(C)Cc2cc(C)cc(C)n2)nc1C
- IC50 [4]: > 50.1 µM

SMILES: c1ccc(SCCN2CCCC(Cn3ccnc3)C2)cc1 (stereo not given)
- IC50 [4]: > 50.1 µM

SMILES: CCC[C@@H]1CN(Cc2nnc(-c3cccc(F)c3)o2)C[C@H]1NC(C)=O
- IC50 [4]: > 50.1 µM

SMILES: CCOc1ccc(CC(CNC(=O)c2ccoc2C)C(N)=O)cc1 (stereo not given)
- IC50 [4]: > 50.1 µM

SMILES: CCc1n[nH]c(C2CN(Cc3nc(C4CC4)no3)CCO2)n1 (stereo not given)
- IC50 [4]: > 50.1 µM

SMILES: COc1c(C)cnc(CN(C)C(=O)c2ccccc2F)c1C
- IC50 [4]: > 50.1 µM

SMILES: O=C(O)c1cc(-c2cc[nH]n2)cc(S(=O)(=O)N2CCCCCC2)c1
- IC50 [4]: > 50.1 µM

SMILES: COCCOc1ccc(NC(=O)N2CCCC2c2cccs2)cn1 (stereo not given)
- IC50 [4]: > 50.1 µM

SMILES: CSC(C)C(=O)NCc1ccc(-n2cncn2)nc1 (stereo not given)
- IC50 [4]: > 50.1 µM

SMILES: O=C(C(O)c1ccccc1Cl)N1CCCN(Cc2cccnc2)CC1 (stereo not given)
- IC50 [4]: > 50.1 µM

SMILES: O=C(NCC1(O)CCCCC1)c1coc(COc2cccc(F)c2)n1
- IC50 [4]: > 50.1 µM

SMILES: CC(O)(CNc1ccc(Cl)c(C#N)n1)c1ccsc1 (stereo not given)
- IC50 [4]: 44 µM

SMILES: N#Cc1cccc(CN2CCN(Cc3cscn3)CC2)c1
- IC50 [4]: > 50.1 µM

SMILES: CCCc1ccc(CN2CCN(C(=O)C(C)C)[C@@H]3CS(=O)(=O)C[C@@H]32)o1
- IC50 [4]: > 50.1 µM

SMILES: CC(Nc1ccn(Cc2ccccn2)n1)C(=O)NC(C)(C)C (stereo not given)
- IC50 [4]: > 50.1 µM

SMILES: Fc1cccc(CN2CCN(Cc3cscn3)CC2)c1
- IC50 [4]: > 50.1 µM

SMILES: Cc1cc(C2CCC2)nc(N2CCC3(CC2)OCCCC3O)n1 (stereo not given)
- IC50 [4]: > 50.1 µM

SMILES: O=c1[nH]c2c(c(=O)n1C1CCCCC1)CCC2Nc1ccccn1 (stereo not given)
- IC50 [4]: > 50.1 µM

SMILES: COc1ccc(-n2nnc(C(=O)NCC3CCCCC3)n2)cc1
- IC50 [4]: > 50.1 µM

SMILES: Cc1nc(CN2CCCC(N(C)Cc3nc(CC(C)C)no3)C2)no1 (stereo not given)
- IC50 [4]: > 50.1 µM

SMILES: CSCCC(O)C(=O)N1CCCN(Cc2cccnc2)CC1 (stereo not given)
- IC50 [4]: > 50.1 µM

SMILES: Cc1cc(CN(C)C(=O)c2cccc(N3CCCC3=O)c2)no1
- IC50 [4]: > 50.1 µM

SMILES: COc1c(F)cc(-c2cn(CCn3c(C)cc(C)nc3=O)nn2)cc1Cl
- IC50 [4]: > 50.1 µM

SMILES: O=C(CCNC(=O)c1ccoc1)Nc1cccc(F)c1
- IC50 [4]: > 50.1 µM

SMILES: O=C(Cc1ccsc1)N1CCCC(c2n[nH]c3ncccc23)C1 (stereo not given)
- IC50 [4]: > 50.1 µM

SMILES: CCOCC1CN(Cc2ccc(OC)cc2)Cc2nn(CC3CC3)cc21 (stereo not given)
- IC50 [4]: > 50.1 µM

SMILES: CSc1cc2c(cc1NC(=O)NCC(C)(C)C(N)=O)OCCO2
- IC50 [4]: > 50.1 µM

SMILES: CNC(=O)c1ccc2c(c1)C1(CCN(CC(C)C)CC1)C(=O)N2
- IC50 [4]: > 50.1 µM

SMILES: COc1ccc(C2CCCN2C(=O)Nc2ccc(OC)nc2)cc1 (stereo not given)
- IC50 [4]: > 50.1 µM
